SMILES strings stand for the structures.

The test system of one assay is SUM159 tumour masses. The assay can be described thus: Ex vivo mammosphere forming assay on SUM159 tumour masses. The format is cell-based, human.
For the next assay, the system named is 4T1 cells. The assay can be described thus: In vitro sphere forming assay, 4T1 cells under CTR/STS. The format is cell-based, mouse. The following applies: STS (0.5 g/l glucose, 1% FBS), 48 h; agent added (8-Br-cAMP; glucose 1 g/l).
Another assay relates to SUM159 xenografts. The assay can be described thus: Growth of SUM159 xenografts in NOD scid gamma (NSG) mice. The following applies: agent combined with FMD cycles, compared with FMD or drug alone.
Assay [1] concerns 4T1 tumour masses (CD44highCD24low subpopulation). Put plainly: CD44CD24 flow cytometry of 4T1 tumour masses. The following applies: 2DG combined with FMD. The format is in vivo, mouse. As for the experimental part:
Cells were harvested and washed in PBS 1% BSA and pellets were resuspended in blocking buffer (PBS 10% BSA) and incubated for 30 min at 4° C. light protected. After a wash in PBS 1% BSA, cells were incubated with antibodies solution (200 μl/1×10^6 cells) for 45 min at 4° C. […] SUM159 samples were analysed by flow cytometry with Attune NxT flow cytometer and data were processed by Kaluza analysis software (Beckman coulter, version 2.0). 4T1 samples were analysed by flow cytometry with FACSCalibur (BD) and data were processed by FlowJo software.
On the technique in general: Flow cytometry measures light scatter and fluorescence of single cells or particles in a stream.

Another assay has as its system 4T1-luc cells. Put plainly: Growth of 4T1-luc cells in the mammary fat pad of Balb-c mice. The following applies: 2DG once a day i.p. combined with 4 cycles of FMD. The format is in vivo, mouse.
The subject of assay [2] is SUM159 tumour cells derived from in vivo xenografts. Put plainly: Limiting dilution assay in recipient NSG mice. On the set-up: species or system human.
Setting [3] is: tumour masses from mice treated with agent combined with FMD cycles.
The mark [4] stands for this setting: tumour masses from mice treated with drug under AL diet.

Take `OC[C@H]1OC(O)[C@H](O)[C@@H](O)[C@@H]1O` (stereo partly drawn) [glucose]: the “number of ex vivo mammospheres (sphere formation)” value (from here on “number of ex vivo mammospheres”) in the assay on SUM159 tumour masses (setting [3]) is on record as “completely rescued the FMD-dependent reduction of mammospheres”. Also, the “in vitro sphere formation” value in the assay with 4T1 cells is “reversed the STS effect on 4T1 sphere formation”. In addition, the “tumor progression / anti-tumor activity” value in the assay with SUM159 xenografts is “partially reversed the FMD effects on tumor progression”.
For the compound `Nc1ncnc2c1nc(Br)n2[C@@H]1O[C@@H]2COP(=O)(O)O[C@H]2[C@H]1O` [8-Br-cAMP, 8-Bromoadenosine 3′,5′-cyclic mono-phosphate], the “in vitro sphere formation” value in the assay with 4T1 cells is given as “reversed fasting/STS-dependent spheres reduction”.
`CN(C)C(=N)N=C(N)N` [metformin]: the “number of ex vivo mammospheres” value with SUM159 tumour masses (setting [4]) was “reduced tumor growth and sphere formation”. Further, in the assay with SUM159 xenografts, the “tumor progression / anti-tumor activity” value is “did not show any additive or synergistic antitumor effect when combined with the FMD”.
On to `O=CC[C@@H](O)[C@H](O)[C@H](O)CO` [2DG, 2-Deoxy-D-Glucose], for which the “number of ex vivo mammospheres” value with SUM159 tumour masses (setting [3]) was “decreasing the number of mammospheres derived by tumor masses, even after a multiple serial propagation”; with SUM159 tumour masses (setting [4]), “did not have any effect under AL conditions”. For the same compound, the “CSCs (CD44 and CD24 expression)” value in assay [1] was “reducing CSCs”. Further, in the assay with 4T1-luc cells, the tumor progression entry is “potentiated the effect of FMD both in delaying tumor progression”. For the same compound, the “tumor progression / anti-tumor activity” value in the assay on SUM159 xenografts is reported as “potentiated the effect of FMD both in delaying tumor progression”. In assay [2] (donor mice 2DG + FMD, 1,000 cells dilution level), the “time tumor formation was prevented” value is reported as “more than 150 days”. Besides, the “mouse survival in the limiting dilution assay” value in assay [2] (donor mice treated with 2DG + FMD) was “potentiated the effect of FMD in increasing mouse survival compared to 2DG and FMD alone”.
For the compound `O=C(Oc1cccc(F)c1OC(=O)c1cccc(O)c1)c1cccc(O)c1` [WZB117], in the assay with SUM159 tumour masses (setting [4]), the “number of ex vivo mammospheres” value is “mimicked the effect of FMD on reducing the number of spheres formation”. Also, the “tumor progression / anti-tumor activity” value with SUM159 xenografts is listed as “did not potentiate the anti-tumor activity of FMD”.

The values are drawn from patent US20220313694A1, “REDUCED CALORIC INTAKE AND ANTICANCER AGENTS FOR THE TREATMENT OF CANCER” (IFOM FONDAZIONE ISTITUTO FIRC DI ONCOLOGIA MOLECOLARE, priority 2021, published 2022).
